We go through 1 compound from ChEMBL document CHEMBL6121062, “Discovery, Optimization, and Preclinical Pharmacology of EP652, a METTL3 Inhibitor with Efficacy in Liquid and Solid Tumor Models” (J Med Chem, 2025).

The source made the active and inactive calls. The calls are words filed in the database; no cut-off is given here.

The nature of series [1]: Toxicity in NSG mouse xenografted with human A549 cells assessed as body weight gain at 30 mg/kg, ip qd treated for 50 days. It counts as organism-based. The settings on record: in vivo, 1200 h, time 50 day. A general note: A xenograft is tissue or cells of one species grown in another, often human tumour cells in immunodeficient mice.
The target of another series is T1, Cytochrome P450 1A2 (Homo sapiens, UniProt P05177).
T1 sequence (P05177 whole entry): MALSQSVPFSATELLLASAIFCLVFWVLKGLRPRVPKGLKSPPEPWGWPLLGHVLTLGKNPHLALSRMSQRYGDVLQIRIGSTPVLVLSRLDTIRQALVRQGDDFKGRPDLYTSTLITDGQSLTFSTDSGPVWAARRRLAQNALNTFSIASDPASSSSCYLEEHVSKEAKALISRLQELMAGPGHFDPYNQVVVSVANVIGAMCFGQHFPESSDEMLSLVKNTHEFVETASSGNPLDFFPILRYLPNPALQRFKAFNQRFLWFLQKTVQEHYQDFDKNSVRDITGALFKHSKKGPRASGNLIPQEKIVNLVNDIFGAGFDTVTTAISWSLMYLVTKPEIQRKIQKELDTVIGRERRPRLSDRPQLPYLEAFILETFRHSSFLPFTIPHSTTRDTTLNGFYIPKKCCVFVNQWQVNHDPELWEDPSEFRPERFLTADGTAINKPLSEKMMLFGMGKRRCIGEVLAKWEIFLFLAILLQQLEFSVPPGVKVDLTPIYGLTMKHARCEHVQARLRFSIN
Put plainly: Inhibition of CYP1A2 (unknown origin). Type of series: ADME.

Series [2] deals with MV4-11. Description: Antitumor activity against human MV4-11 cells expressing Luc-mCh-Puro xenografted in NSG mouse assessed as decrease in hCD45+ cells in spleen at 30 mg/kg, ip qd measured after 28 days by flow cytometry. Type of series: functional, organism-based. The settings on record: time 28.0 day.
The next series concerns Kasumi 1. Put plainly: Induction of apoptosis in human Kasumi 1 cells incubated for 48 hrs by Caspase-Glo 3/7 assay. Type of series: functional, cell-based.
A short description of series [3]: In vivo inhibition of METTL3/METTL14-mediated m6A mRNA expression in PBMC of rat at 0.3 mg/kg, ip relative to control. It counts as functional.
Series [4] in a line: Half life in human liver microsomes. It counts as ADME, Microsome.
Series [5] addresses T2, METTL3/METTL14 (Homo sapiens) (UniProt Q86U44+Q9HCE5). Description: (§1) Inhibition of METTL3/METTL14-mediated m6A mRNA expression in human A549 cells incubated for 24 hrs by LC-MS/MS analysis. Type of series: cell-based.
In series [6] the target is T3, METTL3/METTL14 (Homo sapiens, UniProt Q86U44). Described as §1. It counts as cell-based.
T3 sequence (Q86U44 whole entry): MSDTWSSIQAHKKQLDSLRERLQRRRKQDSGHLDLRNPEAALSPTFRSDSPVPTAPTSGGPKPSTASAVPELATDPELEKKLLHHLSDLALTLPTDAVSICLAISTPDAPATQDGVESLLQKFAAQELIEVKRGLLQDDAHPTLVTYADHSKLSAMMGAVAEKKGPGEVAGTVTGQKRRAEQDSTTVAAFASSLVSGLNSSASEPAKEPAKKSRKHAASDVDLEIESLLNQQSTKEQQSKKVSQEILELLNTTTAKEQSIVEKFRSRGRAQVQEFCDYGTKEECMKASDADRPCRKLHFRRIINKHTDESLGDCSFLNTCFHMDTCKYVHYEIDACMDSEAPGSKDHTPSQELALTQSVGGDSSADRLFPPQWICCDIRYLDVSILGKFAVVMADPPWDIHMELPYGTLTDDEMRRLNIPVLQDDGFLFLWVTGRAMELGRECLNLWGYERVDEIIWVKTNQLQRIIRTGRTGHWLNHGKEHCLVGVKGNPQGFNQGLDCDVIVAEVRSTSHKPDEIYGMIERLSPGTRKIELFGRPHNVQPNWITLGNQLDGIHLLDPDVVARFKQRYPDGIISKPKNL
T3 sequence (Q9HCE5 whole entry, further chain): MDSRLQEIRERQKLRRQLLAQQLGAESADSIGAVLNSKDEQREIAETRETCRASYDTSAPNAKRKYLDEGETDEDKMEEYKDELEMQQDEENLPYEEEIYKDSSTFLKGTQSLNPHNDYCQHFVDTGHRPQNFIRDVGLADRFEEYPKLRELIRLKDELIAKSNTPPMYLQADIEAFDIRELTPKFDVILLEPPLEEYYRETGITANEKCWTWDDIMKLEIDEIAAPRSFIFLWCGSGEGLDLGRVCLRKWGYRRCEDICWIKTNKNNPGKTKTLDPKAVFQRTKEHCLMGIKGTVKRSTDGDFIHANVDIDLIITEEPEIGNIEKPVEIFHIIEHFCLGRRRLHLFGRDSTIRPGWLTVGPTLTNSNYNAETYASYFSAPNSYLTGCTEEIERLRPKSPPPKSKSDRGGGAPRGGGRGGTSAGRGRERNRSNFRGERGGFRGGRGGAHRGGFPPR
Series [7] is described as follows: Toxicity in NSG mouse xenografted with human FaDu cells assessed as body weight gain at 30 mg/kg, ip qd treated for 20 days. It counts as organism-based. The settings on record: in vivo, 480 h, time 20 day.
In another series the test system is Calu-6. Description: Antiproliferative activity against human Calu-6 cells assessed as inhibition of cell viability incubated for 72 hrs by ATPlite assay. Type of series: functional, cell-based. The settings on record: Calu-6, 72 h.
Series [8] deals with T2, METTL3/METTL14 (Homo sapiens). Put plainly: (§2) Inhibition of METTL3/METTL14-mediated m6A mRNA expression in human Kasumi 1 cells incubated for 24 hrs by LC-MS/MS analysis. It counts as cell-based.
For series [9], the target named is T3, METTL3/METTL14. The description is as §2. It counts as cell-based.
Series [10] deals with T2, METTL3/METTL14 (Homo sapiens). Put plainly: (§3) Inhibition of METTL3/METTL14-mediated m6A mRNA expression in human Calu-6 cells incubated for 24 hrs by LC-MS/MS analysis. It counts as cell-based.
For series [11], the target named is T3, METTL3/METTL14. The series is described as §3. It counts as cell-based.
Another series deals with A549. Description: Antiproliferative activity against human A549 cells assessed as inhibition of cell viability incubated for 72 hrs by ATPlite assay. It counts as functional, cell-based. The settings on record: A549, 72 h. (In general: ATP-based viability assays read luminescence as a measure of living cells.)
A further series relates to HepG2. Description: Cytotoxicity against human HepG2 cells assessed as cell viability at 50 uM relative to control. It counts as functional. The settings on record: read-out: Activity.
Series [12] relates to MV4-11. Description: Antitumor activity against human MV4-11 cells expressing Luc-mCh-Puro xenografted in NSG mouse assessed as decrease in hCD45+ cells in blood at 30 mg/kg, ip qd measured after 28 days by flow cytometry. It counts as functional, organism-based. The settings on record: time 28.0 day.
Series [13] is described as follows: Toxicity in NSG mouse xenografted with human SK-OV-3 cells assessed as macroscopic adverse events at 30 mg/kg, ip qd treated for 83 days. Type of series: organism-based. The settings on record: in vivo, 1992 h, time 83 day.

In general, IC50 refers to the concentration that inhibits the measured activity by half. By Emax is commonly meant the greatest response seen or fitted, relative to the assay's reference. As usually defined, the half-life is how long it takes for the measured level to halve. A low value points to rapid decline. With `C[C@@H](n1cc(-c2cncc(N(C)C)c2)nn1)n1ccc(N2CCC[C@@H](NCC3CC3)C2)cc1=O`, the Activity result in [1], in series [7] and in series [13] was “Non-toxic” in each case. Moreover, the IC50 was more than 100000 nM against Cytochrome P450 1A2; 7 nM on METTL3/METTL14 [6]; 18 nM in the series on Calu-6; 5 nM on METTL3/METTL14 [9]; 9 nM at METTL3/METTL14 [11]; 169 nM in the series with A549. The result in the series on MV4-11 [2], in the series with Kasumi 1 and with MV4-11 [12] was Active. Further, the maximal effect (Emax) at 0.3 mg/kg in series [3] is approximately 75%. In addition, in [4], the half-life amounted to 2.34 h. Also, the inhibition entry in series [5], in series [8] and in series [10] was “Dose-dependent-effect” each time. The viability at 50 µM in the series on HepG2 is 90.3%.
